Assay results from patent US7514455B2, “Inhibitors against complex II of electron transport system” (The Kitasato Institute, priority 2002, dated 2009).
pIC50: −log10 of the molar value. Like-named read-outs stand apart in the source and are kept apart here.

Columns and labels:
Format in all cases: biochemical
[1] = target: T1, bovine heart complex II (succinate-ubiquinone oxidoreductase) (Bos taurus, UniProt P35720+Q3T189+Q95123); test: Inhibition of succinate dehydrogenase activity of bovine heart complex II (DCIP reduction)
T1 construct: of the bovine heart, mitochondria prepared according to the method of S. Takamiya et al; from tissue; host or cells: bovine heart mitochondria
T1 sequence (P31039 44-665 partner): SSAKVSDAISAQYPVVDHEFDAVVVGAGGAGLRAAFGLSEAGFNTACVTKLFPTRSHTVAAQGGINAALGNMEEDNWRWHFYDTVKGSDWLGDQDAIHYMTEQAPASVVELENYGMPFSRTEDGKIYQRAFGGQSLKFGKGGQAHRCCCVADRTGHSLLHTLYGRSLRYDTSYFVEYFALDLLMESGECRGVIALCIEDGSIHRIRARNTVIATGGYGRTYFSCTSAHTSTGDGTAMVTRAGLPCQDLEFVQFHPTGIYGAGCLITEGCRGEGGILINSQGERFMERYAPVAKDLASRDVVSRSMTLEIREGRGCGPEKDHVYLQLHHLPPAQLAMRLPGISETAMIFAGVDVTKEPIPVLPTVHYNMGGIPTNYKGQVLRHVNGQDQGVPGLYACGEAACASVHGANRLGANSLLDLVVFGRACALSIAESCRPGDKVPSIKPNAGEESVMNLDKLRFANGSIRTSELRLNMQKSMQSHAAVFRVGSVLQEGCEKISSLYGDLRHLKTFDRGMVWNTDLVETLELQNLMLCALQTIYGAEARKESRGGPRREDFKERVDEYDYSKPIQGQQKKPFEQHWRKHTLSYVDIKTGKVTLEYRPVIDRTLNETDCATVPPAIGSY
T1 sequence (Q3T189 29-280): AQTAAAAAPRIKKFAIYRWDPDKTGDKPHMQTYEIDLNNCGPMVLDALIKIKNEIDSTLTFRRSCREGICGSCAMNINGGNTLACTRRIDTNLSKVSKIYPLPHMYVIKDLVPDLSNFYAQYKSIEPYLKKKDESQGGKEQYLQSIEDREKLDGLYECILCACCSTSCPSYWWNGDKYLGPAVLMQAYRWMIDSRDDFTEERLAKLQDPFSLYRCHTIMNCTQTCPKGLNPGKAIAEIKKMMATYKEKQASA
T1 sequence (P35720 30-169): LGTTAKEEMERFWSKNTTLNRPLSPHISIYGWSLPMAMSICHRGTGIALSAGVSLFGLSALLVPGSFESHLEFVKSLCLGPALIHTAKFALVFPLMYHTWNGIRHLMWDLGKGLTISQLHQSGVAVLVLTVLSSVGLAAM
T1 sequence (Q95123 56-158): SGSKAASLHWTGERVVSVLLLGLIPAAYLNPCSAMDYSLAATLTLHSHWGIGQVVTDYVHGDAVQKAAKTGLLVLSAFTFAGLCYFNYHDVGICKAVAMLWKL
Method: With regard to the complex II (succinate-ubiquinone oxidoreductase) of the bovine heart, mitochondria prepared according to the method of S. Takamiya et al. (Developmental changes in the respiratory chain of Ascaris mitochondria, Biochim. Biophys. Acta, 1141, 65-71, 1993) were used. Succinate dehydrogenase activity of the complex II was measured by changes of maximum absorption, which was specific to the electron acceptor (DCIP), from oxidized form of 2,6-dichlorophenolindophenol (DCIP, Sigma Inc.) to reduced form with the addition of succinate.
With regard to the complex II of the bovine heart, mitochondria prepared according to the same method described in the referential example 1 was used. Succinate dehydrogenase activity of the complex II was measured by changes of maximum absorption, which was specific to the electron acceptor (DCIP), from oxidized form of DCIP to reduced form with the addition of succinate. […] Reaction rate was measured by that the formation rate of reduced form of DCIP (amM^−1 1 cm^−1: 21) which accepted electron from succinate was measured at absorption changes of 600 nm. Activity was indicated by molar numbers of DCIP reduced per minute. Potassium cyanide, final concentration of 10 mM, was added due to necessity for prevention of leakage of reduction activity by inhibiting terminal oxidase.
With regard to the complex II (succinate-ubiquinone oxidoreductase) of the bovine heart, mitochondria prepared according to the same method described in the referential example 1 was used. Succinate dehydrogenase activity of the complex II was measured by changes of maximum absorption, which was specific to the electron acceptor (DCIP), from oxidized form of DCIP to reduced form with the addition of succinate. […] Reaction rate was measured by that the formation rate of reduced form of DCIP (amM^−1 1 cm^−1: 21) which accepted electron from succinate was measured at absorption changes of 600 nm. Activity was indicated by molar numbers of DCIP reduced per minute. Potassium cyanide, final concentration of 10 mM, was added due to necessity for prevention of leakage of reduction activity by inhibiting terminal oxidase.
With regard to the complex II of the bovine heart, mitochondria prepared according to the same method described in the referential example 1 was used. Succinate dehydrogenase activity of the complex II was measured by changes of maximum absorption, which was specific to the electron acceptor (DCIP), from oxidized form of DCIP to reduced form with the addition of succinate.

Ascaris suum complex II = target: T2, Ascaris suum complex II (Ascaris suum, UniProt O44074+P92506+P92507); test: Inhibition of succinate dehydrogenase activity of Ascaris suum complex II (DCIP reduction)
T2 construct: the purified complex II prepared according to the method of F. Saruta et al; from tissue; complex II purified by the method of Saruta et al. 1995
T2 sequence (Q33862 19-645): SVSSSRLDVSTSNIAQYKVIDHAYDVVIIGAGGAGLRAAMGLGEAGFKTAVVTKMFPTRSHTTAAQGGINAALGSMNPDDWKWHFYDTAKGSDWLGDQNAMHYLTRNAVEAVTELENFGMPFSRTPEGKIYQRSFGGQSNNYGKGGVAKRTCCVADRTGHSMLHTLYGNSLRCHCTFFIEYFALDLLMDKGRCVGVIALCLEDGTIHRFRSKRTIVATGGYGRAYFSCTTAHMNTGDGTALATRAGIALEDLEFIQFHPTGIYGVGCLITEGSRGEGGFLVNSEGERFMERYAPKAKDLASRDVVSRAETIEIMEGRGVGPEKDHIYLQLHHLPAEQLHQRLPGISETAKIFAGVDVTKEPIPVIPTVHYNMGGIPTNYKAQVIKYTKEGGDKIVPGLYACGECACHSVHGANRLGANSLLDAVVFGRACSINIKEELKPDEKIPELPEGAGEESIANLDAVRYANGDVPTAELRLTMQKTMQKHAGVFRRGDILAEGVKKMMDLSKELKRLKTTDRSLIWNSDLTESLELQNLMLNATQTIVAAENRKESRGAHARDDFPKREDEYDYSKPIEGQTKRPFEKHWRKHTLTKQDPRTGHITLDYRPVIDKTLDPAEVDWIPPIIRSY
T2 sequence (P92506 32-188): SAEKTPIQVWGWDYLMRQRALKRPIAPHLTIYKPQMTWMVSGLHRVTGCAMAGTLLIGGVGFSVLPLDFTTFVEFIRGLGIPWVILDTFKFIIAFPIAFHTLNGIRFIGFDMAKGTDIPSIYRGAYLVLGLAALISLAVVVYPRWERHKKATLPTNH
T2 sequence (O44074 22-282): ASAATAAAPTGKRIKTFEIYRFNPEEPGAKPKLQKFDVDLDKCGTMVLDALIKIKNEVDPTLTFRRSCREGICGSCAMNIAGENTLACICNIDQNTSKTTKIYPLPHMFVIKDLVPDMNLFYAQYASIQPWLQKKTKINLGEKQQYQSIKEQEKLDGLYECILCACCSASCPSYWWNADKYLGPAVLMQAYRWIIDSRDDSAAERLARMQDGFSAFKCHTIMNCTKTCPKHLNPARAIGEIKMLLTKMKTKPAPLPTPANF
T2 sequence (P92507 26-156): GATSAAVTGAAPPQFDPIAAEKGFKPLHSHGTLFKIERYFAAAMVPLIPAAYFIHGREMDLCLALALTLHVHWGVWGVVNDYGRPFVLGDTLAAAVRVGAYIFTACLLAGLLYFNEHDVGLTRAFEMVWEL
Method: With regard to the complex II of the Ascaris suum, the purified complex II prepared according to the method of F. Saruta et al. [Stage-specific Isoforms of Complex II (Succinate-Ubiquinone Oxidoreductase) in Mitochondria from the Parasitic Nematode, Ascaris suum: J. Biol. Chem. 270, 928-932, 1995] was used. Succinate dehydrogenase activity of the complex II was measured by changes of maximum absorption, which was specific to the electron acceptor (DCIP), from oxidized form of DCIP to reduced form with the addition of succinate.
(§1) Namely, ubiquinone-2 and DCIP were added to the level of 100 ìM and 70 ìM, respectively, into 50 mM phosphate buffer (pH 7.5); atpenin A4 was added therein; further the complex II was added thereto; then potassium succinate with final concentration of 10 mM was added; and the reaction was started at 25° C. Reaction rate was measured by that the formation rate of reduced form of DCIP (amM^−1 1 cm^−1: 21) which accepted electron from succinate was measured at absorption changes of 600 nm. Activity was indicated by molar numbers of DCIP reduced per minute. Potassium cyanide, final concentration of 10 mM, was added due to necessity for prevention of leakage of reduction activity by inhibiting terminal oxidase.
(§2) With regard to the complex II of the Ascaris suum, the purified complex II prepared according to the same method of example 3 was used. Succinate dehydrogenase activity of the complex II was measured by changes of maximum absorption, which was specific to the electron acceptor (DCIP), from oxidized form of DCIP to reduced form with the addition of succinate. […] Reaction rate was measured by that the formation rate of reduced form of DCIP (amM^−1 1 cm^−1: 21) which accepted electron from succinate was measured at absorption changes of 600 nm. […]
as §2
(§3) With regard to the complex II of the Ascaris suum, the purified complex II prepared according to the same method of example 3 was used. Succinate dehydrogenase activity of the complex II was measured by changes of maximum absorption, which was specific to the electron acceptor (DCIP), from oxidized form of DCIP to reduced form with the addition of succinate. […]

rat liver complex II = target: T3, rat liver complex II (Rattus norvegicus, UniProt P21913+Q641Z9+Q6PCT8); test: Inhibition of succinate dehydrogenase activity of rat liver complex II (DCIP reduction)
T3 construct: from tissue; host or cells: rat liver mitochondria
T3 sequence (Q920L2 35-656 partner): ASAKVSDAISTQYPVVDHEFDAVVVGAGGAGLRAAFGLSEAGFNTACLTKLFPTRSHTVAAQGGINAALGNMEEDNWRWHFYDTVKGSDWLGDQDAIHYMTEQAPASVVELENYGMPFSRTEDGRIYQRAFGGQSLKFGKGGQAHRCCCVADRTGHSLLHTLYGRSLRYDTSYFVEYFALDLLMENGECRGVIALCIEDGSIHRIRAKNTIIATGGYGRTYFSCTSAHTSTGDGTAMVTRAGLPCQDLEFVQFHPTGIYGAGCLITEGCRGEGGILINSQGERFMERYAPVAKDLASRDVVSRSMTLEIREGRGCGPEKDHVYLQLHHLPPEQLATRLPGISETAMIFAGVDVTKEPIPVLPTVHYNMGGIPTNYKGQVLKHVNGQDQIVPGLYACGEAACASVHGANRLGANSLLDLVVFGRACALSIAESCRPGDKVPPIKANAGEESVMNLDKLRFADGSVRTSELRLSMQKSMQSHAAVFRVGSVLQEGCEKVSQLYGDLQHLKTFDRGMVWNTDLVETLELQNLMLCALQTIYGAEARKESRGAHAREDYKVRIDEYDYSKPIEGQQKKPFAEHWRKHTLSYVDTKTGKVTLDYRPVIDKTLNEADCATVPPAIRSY
T3 sequence (P21913 31-282): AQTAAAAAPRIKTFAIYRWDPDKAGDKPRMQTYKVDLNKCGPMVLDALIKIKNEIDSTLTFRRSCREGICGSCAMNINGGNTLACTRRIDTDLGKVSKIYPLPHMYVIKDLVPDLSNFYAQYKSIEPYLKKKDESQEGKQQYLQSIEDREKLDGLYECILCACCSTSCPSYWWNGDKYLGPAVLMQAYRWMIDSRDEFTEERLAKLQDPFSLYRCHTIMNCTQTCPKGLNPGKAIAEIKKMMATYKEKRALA
T3 sequence (Q641Z9 30-169 limits assumed): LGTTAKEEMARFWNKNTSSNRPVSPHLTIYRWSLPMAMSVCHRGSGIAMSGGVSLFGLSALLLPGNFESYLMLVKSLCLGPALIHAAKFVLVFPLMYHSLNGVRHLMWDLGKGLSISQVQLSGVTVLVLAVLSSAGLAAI
T3 sequence (Q6PCT8 57-159): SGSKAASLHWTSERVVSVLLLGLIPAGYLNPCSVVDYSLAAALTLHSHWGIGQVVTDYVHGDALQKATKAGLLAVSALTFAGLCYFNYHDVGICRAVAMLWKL
Method: as §1, with “With regard to the complex II of the rat liver, mitochondria prepared according to the same method described in the referential example 1 was used. Succinate dehydrogenase activity of the complex II was measured by changes of maximum absorption, which was specific to the electron acceptor (DCIP), from oxidized form of DCIP to reduced form with the addition of succinate. Namely,” for “Namely,”
as §2, with “the rat liver, mitochondria” for “the Ascaris suum, the purified complex II”, “method described in the referential” for “method of”, “example 1” for “example 3”
as §2, with “the rat liver, mitochondria” for “the Ascaris suum, the purified complex II”, “method described in the referential” for “method of”, “example 1” for “example 3”
as §3, with “the rat liver, mitochondria” for “the Ascaris suum, the purified complex II”, “method described in the referential” for “method of”, “example 1” for “example 3”

[2] = bovine heart mitochondria, ubiquinone-2, DCIP, 10 mM succinate, pH 7.5, 25° C., read-out: 50% inhibitory concentration of the complex II (IC50), Bovine heart
[3] = purified Ascaris suum complex II, ubiquinone-2, DCIP, 10 mM succinate, pH 7.5, 25° C., read-out: 50% inhibitory concentration of the complex II (IC50), Ascaris suum
[4] = rat liver mitochondria, ubiquinone-2, DCIP, 10 mM succinate, pH 7.5, 25° C., read-out: 50% inhibitory concentration of the complex II (IC50), Rat liver

Row | SMILES | pIC50 [1] | pIC50 (Ascaris suum complex II) | pIC50 (rat liver complex II) | pIC50 [1, 2] | pIC50 (Ascaris suum complex II; [3]) | pIC50 (rat liver complex II; [4])
1 | COc1[nH]c(=O)c(C(=O)C(C)CC(C)C(Cl)CCl)c(O)c1OC (centres unmarked) [Atpenin A5, atpenin A5] | 8.44 | 7.49 | 8.43 | – | – | –
2 | CC1=C(C(=O)Nc2ccccc2)SCCO1 [Carboxin, carboxin, reference compound] | – | – | – | 5.96 | – | –
3 | CCC(C)CC(C)C(=O)c1c(O)nc(OC)c(OC)c1O (centres unmarked) [Atpenin B, atpenin B] | – | – | – | 8.00 | 7.30 | 7.70
4 | O=C(CC(=O)C(F)(F)F)c1cccs1 [Thenoyltrifluoro Aceton, thenoyltrifluoroacetone, reference compound] | – | – | – | 5.24 | – | –
5 | COc1nc(O)c(C(=O)C(C)CC(C)C(C)Cl)c(O)c1OC (centres unmarked) [Atpenin A4, atpenin A4] | – | – | – | 7.96 | 6.66 | 7.62
6 | C/C=C/CC(C)C(=O)c1c(O)c(OC)c(OC)[nH]c1=O (centres unmarked) [Harzianopyridone, harzianopyridone] | – | – | – | 7.77 | 5.70 | 6.70
